# Laboratory results: PubChem BioAssay (NCI)
#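 Results reflect a 48-hour exposure of cells in 96-well plates to compound at five concentrations. TGI denotes the concentration required for complete inhibition of growth.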
# How the values were obtained:
# Test in all cases: inhibition of tumour cell growth, NCI panel, 48 h
# SK-MEL-2 melanoma = tested on: SK-MEL-2 melanoma
# UO-31 renal = tested on: UO-31 renal
# HOP-62 NSCLC = tested on: HOP-62 NSCLC
# SK-OV-3 ovarian = tested on: SK-OV-3 ovarian
# SK-MEL-28 melanoma = tested on: SK-MEL-28 melanoma
# U251 CNS = tested on: U251 CNS
# HT29 colon = tested on: HT29 colon
# COLO 205 colon = tested on: COLO 205 colon
# ACHN renal = tested on: ACHN renal
# UACC-62 melanoma = tested on: UACC-62 melanoma
# NCI-H226 lung = tested on: NCI-H226 lung
# K-562 leukemia = tested on: K-562 leukemia
# MDA-MB-231 breast = tested on: MDA-MB-231 breast
# KM12 colon = tested on: KM12 colon
# M14 melanoma = tested on: M14 melanoma
# SNB-75 CNS = tested on: SNB-75 CNS
# NCI-H460 lung = tested on: NCI-H460 lung
# MALME-3M melanoma = tested on: MALME-3M melanoma
# UACC-257 melanoma = tested on: UACC-257 melanoma
# HS 578T breast = tested on: HS 578T breast
# DU-145 prostate = tested on: DU-145 prostate
# PC-3 prostate = tested on: PC-3 prostate
# SF-268 CNS = tested on: SF-268 CNS
# HCT-15 colon = tested on: HCT-15 colon
# SN12C renal = tested on: SN12C renal
# OVCAR-3 ovarian = tested on: OVCAR-3 ovarian
# RXF 393 renal = tested on: RXF 393 renal
# A498 renal = tested on: A498 renal
# TK-10 renal = tested on: TK-10 renal
# T-47D breast = tested on: T-47D breast
# 786-0 renal = tested on: 786-0 renal
# HCC-2998 colon = tested on: HCC-2998 colon
# OVCAR-8 ovarian = tested on: OVCAR-8 ovarian
# SNB-19 CNS = tested on: SNB-19 CNS
# SF-539 CNS = tested on: SF-539 CNS
# BT-549 breast = tested on: BT-549 breast
# LOX IMVI melanoma = tested on: LOX IMVI melanoma
# HL-60(TB) leukemia = tested on: HL-60(TB) leukemia
# OVCAR-4 ovarian = tested on: OVCAR-4 ovarian
# OVCAR-5 ovarian = tested on: OVCAR-5 ovarian
# NCI-H23 lung = tested on: NCI-H23 lung
# CCRF-CEM leukemia = tested on: CCRF-CEM leukemia
# SK-MEL-5 melanoma = tested on: SK-MEL-5 melanoma
# IGROV1 ovarian = tested on: IGROV1 ovarian
# MOLT-4 leukemia = tested on: MOLT-4 leukemia
# EKVX NSCLC = tested on: EKVX NSCLC
# MDA-N = tested on: MDA-N
# A549 NSCLC = tested on: A549 NSCLC
# NCI/ADR-RES ovarian = tested on: NCI/ADR-RES ovarian
# HCT-116 colon = tested on: HCT-116 colon
# RPMI-8226 leukemia = tested on: RPMI-8226 leukemia
# SW-620 colon = tested on: SW-620 colon
# SF-295 CNS = tested on: SF-295 CNS
# SR leukemia = tested on: SR leukemia
# MDA-MB-435 = tested on: MDA-MB-435
# HOP-92 NSCLC = tested on: HOP-92 NSCLC
# NCI-H522 lung = tested on: NCI-H522 lung
# CAKI-1 renal = tested on: CAKI-1 renal
# MCF7 breast = tested on: MCF7 breast
smiles,measurement,setting,value
O=c1cc(NNc2ccc(F)cc2)[nH]c(=O)[nH]1,TGI,SK-MEL-2 melanoma,45.6 µM
same,TGI,UO-31 renal,31.8 µM
same,TGI,HOP-62 NSCLC,32.7 µM
same,TGI,SK-OV-3 ovarian,> 100 µM
same,TGI,SK-MEL-28 melanoma,33.3 µM
same,TGI,U251 CNS,40.8 µM
same,TGI,HT29 colon,33.9 µM
same,TGI,COLO 205 colon,30.9 µM
same,TGI,ACHN renal,31.7 µM
same,TGI,UACC-62 melanoma,33.5 µM
same,TGI,NCI-H226 lung,57.4 µM
same,TGI,K-562 leukemia,81.2 µM
same,TGI,MDA-MB-231 breast,33.4 µM
same,TGI,KM12 colon,24 µM
same,TGI,M14 melanoma,21 µM
same,TGI,SNB-75 CNS,31.1 µM
same,TGI,NCI-H460 lung,38.7 µM
same,TGI,MALME-3M melanoma,43.8 µM
same,TGI,UACC-257 melanoma,> 100 µM
same,TGI,HS 578T breast,90.8 µM
same,TGI,DU-145 prostate,> 100 µM
same,TGI,PC-3 prostate,32.5 µM
same,TGI,SF-268 CNS,53.8 µM
same,TGI,HCT-15 colon,31.7 µM
same,TGI,SN12C renal,37.7 µM
same,TGI,OVCAR-3 ovarian,32.7 µM
same,TGI,RXF 393 renal,34.3 µM
same,TGI,A498 renal,> 100 µM
same,TGI,TK-10 renal,36.8 µM
same,TGI,T-47D breast,71 µM
same,TGI,786-0 renal,25.5 µM
same,TGI,HCC-2998 colon,51.3 µM
same,TGI,OVCAR-8 ovarian,53.3 µM
same,TGI,SNB-19 CNS,37.1 µM
same,TGI,SF-539 CNS,44.5 µM
same,TGI,BT-549 breast,26.7 µM
same,TGI,LOX IMVI melanoma,> 100 µM
same,TGI,HL-60(TB) leukemia,> 100 µM
same,TGI,OVCAR-4 ovarian,21.4 µM
same,TGI,OVCAR-5 ovarian,33.3 µM
same,TGI,NCI-H23 lung,82.7 µM
same,TGI,CCRF-CEM leukemia,74.7 µM
same,TGI,SK-MEL-5 melanoma,67.1 µM
same,TGI,IGROV1 ovarian,30.2 µM
same,TGI,MOLT-4 leukemia,59.3 µM
same,TGI,EKVX NSCLC,32.2 µM
same,TGI,MDA-N,30.8 µM
same,TGI,A549 NSCLC,34.7 µM
same,TGI,NCI/ADR-RES ovarian,88.7 µM
same,TGI,HCT-116 colon,34.1 µM
same,TGI,RPMI-8226 leukemia,> 100 µM
same,TGI,SW-620 colon,33.1 µM
same,TGI,SF-295 CNS,> 100 µM
same,TGI,SR leukemia,> 100 µM
c1ccc2[nH]c(C3CCCCO3)nc2c1 (configuration not stated),TGI,SK-MEL-2 melanoma,> 100 µM
same,TGI,MDA-MB-435,> 100 µM
same,TGI,UO-31 renal,> 100 µM
same,TGI,HOP-62 NSCLC,> 100 µM
same,TGI,SK-OV-3 ovarian,> 100 µM
same,TGI,SK-MEL-28 melanoma,> 100 µM
same,TGI,U251 CNS,> 100 µM
same,TGI,HT29 colon,> 100 µM
same,TGI,COLO 205 colon,> 100 µM
same,TGI,ACHN renal,> 100 µM
same,TGI,UACC-62 melanoma,> 100 µM
same,TGI,NCI-H226 lung,> 100 µM
same,TGI,K-562 leukemia,> 100 µM
same,TGI,MDA-MB-231 breast,> 100 µM
same,TGI,KM12 colon,> 100 µM
same,TGI,M14 melanoma,> 100 µM
same,TGI,SNB-75 CNS,> 100 µM
same,TGI,HOP-92 NSCLC,> 100 µM
same,TGI,MALME-3M melanoma,> 100 µM
same,TGI,UACC-257 melanoma,> 100 µM
same,TGI,HS 578T breast,> 100 µM
same,TGI,DU-145 prostate,> 100 µM
same,TGI,PC-3 prostate,> 100 µM
same,TGI,SF-268 CNS,> 100 µM
same,TGI,HCT-15 colon,> 100 µM
same,TGI,SN12C renal,> 100 µM
same,TGI,OVCAR-3 ovarian,> 100 µM
same,TGI,RXF 393 renal,> 100 µM
same,TGI,TK-10 renal,> 100 µM
same,TGI,NCI-H522 lung,> 100 µM
same,TGI,T-47D breast,> 100 µM
same,TGI,CAKI-1 renal,> 100 µM
same,TGI,786-0 renal,> 100 µM
same,TGI,HCC-2998 colon,> 100 µM
same,TGI,MCF7 breast,> 100 µM
same,TGI,OVCAR-8 ovarian,> 100 µM
same,TGI,SNB-19 CNS,> 100 µM
same,TGI,SF-539 CNS,> 100 µM
same,TGI,BT-549 breast,> 100 µM
same,TGI,LOX IMVI melanoma,> 100 µM
same,TGI,HL-60(TB) leukemia,> 100 µM
same,TGI,OVCAR-4 ovarian,> 100 µM
same,TGI,OVCAR-5 ovarian,> 100 µM
same,TGI,NCI-H23 lung,> 100 µM
same,TGI,CCRF-CEM leukemia,> 100 µM
same,TGI,SK-MEL-5 melanoma,> 100 µM
same,TGI,IGROV1 ovarian,> 100 µM
same,TGI,MOLT-4 leukemia,> 100 µM
same,TGI,EKVX NSCLC,> 100 µM
same,TGI,MDA-N,> 100 µM
same,TGI,A549 NSCLC,> 100 µM
same,TGI,NCI/ADR-RES ovarian,> 100 µM
same,TGI,HCT-116 colon,> 100 µM
same,TGI,RPMI-8226 leukemia,> 100 µM
same,TGI,SW-620 colon,> 100 µM
same,TGI,SF-295 CNS,> 100 µM
same,TGI,SR leukemia,> 100 µM
CN1CCCN(C)CCCN(C)CCCN(C)CCC1,TGI,SK-MEL-2 melanoma,> 100 µM
same,TGI,MDA-MB-435,> 100 µM
same,TGI,UO-31 renal,> 100 µM
same,TGI,HOP-62 NSCLC,> 100 µM
same,TGI,SK-OV-3 ovarian,> 100 µM
same,TGI,SK-MEL-28 melanoma,> 100 µM
same,TGI,U251 CNS,> 100 µM
same,TGI,HT29 colon,> 100 µM
same,TGI,COLO 205 colon,> 100 µM
same,TGI,ACHN renal,> 100 µM
same,TGI,UACC-62 melanoma,> 100 µM
same,TGI,NCI-H226 lung,> 100 µM
same,TGI,K-562 leukemia,> 100 µM
same,TGI,MDA-MB-231 breast,> 100 µM
same,TGI,KM12 colon,> 100 µM
same,TGI,M14 melanoma,> 100 µM
same,TGI,MALME-3M melanoma,> 100 µM
same,TGI,UACC-257 melanoma,> 100 µM
same,TGI,HS 578T breast,> 100 µM
same,TGI,DU-145 prostate,> 100 µM
same,TGI,PC-3 prostate,> 100 µM
same,TGI,SF-268 CNS,> 100 µM
same,TGI,HCT-15 colon,> 100 µM
same,TGI,OVCAR-3 ovarian,> 100 µM
same,TGI,RXF 393 renal,> 100 µM
same,TGI,TK-10 renal,> 100 µM
same,TGI,NCI-H522 lung,> 100 µM
same,TGI,T-47D breast,> 100 µM
same,TGI,CAKI-1 renal,> 100 µM
same,TGI,786-0 renal,> 100 µM
same,TGI,HCC-2998 colon,> 100 µM
same,TGI,MCF7 breast,> 100 µM
same,TGI,OVCAR-8 ovarian,> 100 µM
same,TGI,SNB-19 CNS,> 100 µM
same,TGI,BT-549 breast,> 100 µM
same,TGI,OVCAR-4 ovarian,> 100 µM
same,TGI,OVCAR-5 ovarian,> 100 µM
same,TGI,NCI-H23 lung,> 100 µM
same,TGI,CCRF-CEM leukemia,> 100 µM
same,TGI,SK-MEL-5 melanoma,> 100 µM
same,TGI,IGROV1 ovarian,> 100 µM
same,TGI,MOLT-4 leukemia,> 100 µM
same,TGI,EKVX NSCLC,> 100 µM
same,TGI,MDA-N,> 100 µM
same,TGI,A549 NSCLC,> 100 µM
same,TGI,NCI/ADR-RES ovarian,> 100 µM
same,TGI,HCT-116 colon,> 100 µM
same,TGI,RPMI-8226 leukemia,> 100 µM
same,TGI,SW-620 colon,> 100 µM
same,TGI,SF-295 CNS,> 100 µM
same,TGI,SR leukemia,> 100 µM
